Laboratory results published in the supplement of paper PMC4862054.

System: CAL-148
Assay: normalised response (% of control), CellTox Green; higher = less cell death (100 = DMSO, 0 = benzethonium chloride kill control)
Settings: incubation time: 72 h
How it was run: (§1)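 Two readouts were taken after 72 h: CellTox Green fluorescence (485/520 nm) first, then CellTiter-Glo luminescence after 10 min at room temperature. Breast cancer cell lines had been seeded as 20 µl suspension into 384-well plates holding compound at 5 concentrations in 10-fold steps across a compound-specific 10,000-fold range. Each value is a normalised signal at a single concentration, with plates scaled to 0.1 % DMSO (100) and a positive kill control (0).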

Row | Structure (SMILES) | normalised response [%]
1 | CN[C@@H](C)C(=O)N[C@H]1CN(C(=O)CC(C)C)CC[C@H]2CC[C@@H](C(=O)NC(c3ccccc3)c3ccccc3)N2C1=O [AT-406] (1000 nM) | 55.1
2 | CC1(COc2ccc3c(c2)ncn3-c2ccc3cccc(N4CCC(N)CC4)c3n2)COC1 [Crenolanib] (1000 nM) | 97.7
3 | CC(C)(C)c1nc(-c2cccc(NS(=O)(=O)c3c(F)cccc3F)c2F)c(-c2ccnc(N)n2)s1 [Dabrafenib] (250 nM) | 106
4 | Cc1nc(C(=O)NCC(=O)O)c(O)c2ccc(Oc3ccccc3)cc12 [FG-4592] (1000 nM) | 93
5 | CC[C@H](CO)Nc1nc(NCc2ccccc2)c2ncn(C(C)C)c2n1 [Seliciclib] (1000 nM) | 106
6 | C=CCN(/C=C1/C(=O)O[C@H](COC)[C@@]2(C)C1=C(O)C(=O)C1=C2[C@H](OC(C)=O)C[C@]2(C)C(=O)CC[C@@H]12)CC=C [Sonolisib] (1000 nM) | 109

System: HCC1143
Assay: as above
Settings: incubation time: 72 h
How it was run: as §1

Row | Structure (SMILES) | normalised response [%]
7 | CN[C@@H](C)C(=O)N[C@H]1CN(C(=O)CC(C)C)CC[C@H]2CC[C@@H](C(=O)NC(c3ccccc3)c3ccccc3)N2C1=O [AT-406] (1000 nM) | 107
8 | CC1(COc2ccc3c(c2)ncn3-c2ccc3cccc(N4CCC(N)CC4)c3n2)COC1 [Crenolanib] (1000 nM) | 99
9 | CC(C)(C)c1nc(-c2cccc(NS(=O)(=O)c3c(F)cccc3F)c2F)c(-c2ccnc(N)n2)s1 [Dabrafenib] (250 nM) | 111
10 | Cc1nc(C(=O)NCC(=O)O)c(O)c2ccc(Oc3ccccc3)cc12 [FG-4592] (1000 nM) | 110
11 | CC[C@H](CO)Nc1nc(NCc2ccccc2)c2ncn(C(C)C)c2n1 [Seliciclib] (1000 nM) | 107
12 | C=CCN(/C=C1/C(=O)O[C@H](COC)[C@@]2(C)C1=C(O)C(=O)C1=C2[C@H](OC(C)=O)C[C@]2(C)C(=O)CC[C@@H]12)CC=C [Sonolisib] (1000 nM) | 82.6

System: MDA-MB-453
Assay: as above
Settings: incubation time: 72 h
How it was run: as §1

Row | Structure (SMILES) | normalised response [%]
13 | CN[C@@H](C)C(=O)N[C@H]1CN(C(=O)CC(C)C)CC[C@H]2CC[C@@H](C(=O)NC(c3ccccc3)c3ccccc3)N2C1=O [AT-406] (1000 nM) | 94.9
14 | CC1(COc2ccc3c(c2)ncn3-c2ccc3cccc(N4CCC(N)CC4)c3n2)COC1 [Crenolanib] (1000 nM) | 112
15 | CC(C)(C)c1nc(-c2cccc(NS(=O)(=O)c3c(F)cccc3F)c2F)c(-c2ccnc(N)n2)s1 [Dabrafenib] (250 nM) | 105
16 | Cc1nc(C(=O)NCC(=O)O)c(O)c2ccc(Oc3ccccc3)cc12 [FG-4592] (1000 nM) | 111
17 | CC[C@H](CO)Nc1nc(NCc2ccccc2)c2ncn(C(C)C)c2n1 [Seliciclib] (1000 nM) | 102
18 | C=CCN(/C=C1/C(=O)O[C@H](COC)[C@@]2(C)C1=C(O)C(=O)C1=C2[C@H](OC(C)=O)C[C@]2(C)C(=O)CC[C@@H]12)CC=C [Sonolisib] (1000 nM) | 109

System: MDA-MB-436
Assay: as above
Settings: incubation time: 72 h
How it was run: as §1

Row | Structure (SMILES) | normalised response [%]
19 | CN[C@@H](C)C(=O)N[C@H]1CN(C(=O)CC(C)C)CC[C@H]2CC[C@@H](C(=O)NC(c3ccccc3)c3ccccc3)N2C1=O [AT-406] (1000 nM) | 86.1
20 | CC1(COc2ccc3c(c2)ncn3-c2ccc3cccc(N4CCC(N)CC4)c3n2)COC1 [Crenolanib] (1000 nM) | 50.8
21 | CC(C)(C)c1nc(-c2cccc(NS(=O)(=O)c3c(F)cccc3F)c2F)c(-c2ccnc(N)n2)s1 [Dabrafenib] (250 nM) | 101
22 | Cc1nc(C(=O)NCC(=O)O)c(O)c2ccc(Oc3ccccc3)cc12 [FG-4592] (1000 nM) | 108
23 | CC[C@H](CO)Nc1nc(NCc2ccccc2)c2ncn(C(C)C)c2n1 [Seliciclib] (1000 nM) | 84.6
24 | C=CCN(/C=C1/C(=O)O[C@H](COC)[C@@]2(C)C1=C(O)C(=O)C1=C2[C@H](OC(C)=O)C[C@]2(C)C(=O)CC[C@@H]12)CC=C [Sonolisib] (1000 nM) | 103

System: MDA-MB-468
Assay: as above
Settings: incubation time: 72 h
How it was run: as §1

Row | Structure (SMILES) | normalised response [%]
25 | CN[C@@H](C)C(=O)N[C@H]1CN(C(=O)CC(C)C)CC[C@H]2CC[C@@H](C(=O)NC(c3ccccc3)c3ccccc3)N2C1=O [AT-406] (1000 nM) | 109
26 | CC(C)(C)c1nc(-c2cccc(NS(=O)(=O)c3c(F)cccc3F)c2F)c(-c2ccnc(N)n2)s1 [Dabrafenib] (250 nM) | 117
27 | Cc1nc(C(=O)NCC(=O)O)c(O)c2ccc(Oc3ccccc3)cc12 [FG-4592] (1000 nM) | 86
28 | C=CCN(/C=C1/C(=O)O[C@H](COC)[C@@]2(C)C1=C(O)C(=O)C1=C2[C@H](OC(C)=O)C[C@]2(C)C(=O)CC[C@@H]12)CC=C [Sonolisib] (1000 nM) | 112

System: CAL-120
Assay: as above
Settings: incubation time: 72 h
How it was run: as §1

Row | Structure (SMILES) | normalised response [%]
29 | CN[C@@H](C)C(=O)N[C@H]1CN(C(=O)CC(C)C)CC[C@H]2CC[C@@H](C(=O)NC(c3ccccc3)c3ccccc3)N2C1=O [AT-406] (1000 nM) | 76.4
30 | CC1(COc2ccc3c(c2)ncn3-c2ccc3cccc(N4CCC(N)CC4)c3n2)COC1 [Crenolanib] (1000 nM) | 99.5
31 | CC(C)(C)c1nc(-c2cccc(NS(=O)(=O)c3c(F)cccc3F)c2F)c(-c2ccnc(N)n2)s1 [Dabrafenib] (250 nM) | -30.1
32 | Cc1nc(C(=O)NCC(=O)O)c(O)c2ccc(Oc3ccccc3)cc12 [FG-4592] (1000 nM) | 103
33 | CC[C@H](CO)Nc1nc(NCc2ccccc2)c2ncn(C(C)C)c2n1 [Seliciclib] (1000 nM) | 101
34 | C=CCN(/C=C1/C(=O)O[C@H](COC)[C@@]2(C)C1=C(O)C(=O)C1=C2[C@H](OC(C)=O)C[C@]2(C)C(=O)CC[C@@H]12)CC=C [Sonolisib] (1000 nM) | 102

System: HCC1599
Assay: as above
Settings: incubation time: 72 h
How it was run: as §1

Row | Structure (SMILES) | normalised response [%]
35 | CN[C@@H](C)C(=O)N[C@H]1CN(C(=O)CC(C)C)CC[C@H]2CC[C@@H](C(=O)NC(c3ccccc3)c3ccccc3)N2C1=O [AT-406] (1000 nM) | 93.1
36 | CC1(COc2ccc3c(c2)ncn3-c2ccc3cccc(N4CCC(N)CC4)c3n2)COC1 [Crenolanib] (1000 nM) | 94.7
37 | CC(C)(C)c1nc(-c2cccc(NS(=O)(=O)c3c(F)cccc3F)c2F)c(-c2ccnc(N)n2)s1 [Dabrafenib] (250 nM) | 100
38 | Cc1nc(C(=O)NCC(=O)O)c(O)c2ccc(Oc3ccccc3)cc12 [FG-4592] (1000 nM) | 93.5
